Measured values as given in patent US11400160B2, “Multifunctional conjugates” (E.P.O.S IASIS Research and Development Limited, priority 2017, dated 2022).

Experiments:
[1] = tested on: osteoclasts from RAW264.7 and Human PBMC; experiment: Resorption on pre-loaded whale dentine / osteologic slides (pit formation); assay type: cell-based, murine; details: for effect on differentiation and activity of osteoclasts: summary statement
Source text: Zoledronic acid was used as control.
(§1) Human peripheral blood mononuclear cells (PBMCs) and the RAW264.7 murine monocytic cell line were differentiated into osteoclast-like cells in the presence of RANKL plus M-CSF and have been used as model systems of osteoclastogenesis. Osteoclast-like cells, from Giant Cell Tumours (GCT) of bone specimens from three independent donors were used to investigate the effect of compounds of the invention on the bone resorbing activity of mature osteoclasts.
Human PBMCs were isolated from normal healthy donors isolated from the buffy coats acquired from the local Red Cross Blood Service. The cells were diluted in Hanks Balanced Salt Solution (HBSS) and separated by gradient centrifugation with Lymphoprep™. Isolated cells were resuspended in α MOD, 10% FCS, L-glutamine (2 mM), Hepes (20 mM), supplemented with M-CSF (25 ng/ml), 1α,25(OH)2 vitamin D3 (10 nM) and dexamethasone (10 nM) and plated into 96-well plates containing whale dentine slices, for the bone resorption assay or directly into wells for TRAP staining. The following day, media were removed and replaced with media as above, supplemented with RANKL (100 ng/ml) in the presence or absence of increasing concentrations of compounds of the invention. Medium and treatments were replaced every three days.
(§2) Cells were cultured in 96-well plates at a density of 1×10^4 cells/well in DMEM medium with 10% FCS, L-glutamine (2 mM) and Hepes (20 mM). Cells were allowed to attach for 4 hrs before treatment with RANKL (50 ng/ml) in the presence or absence of increasing concentrations of compounds of the invention as above. Medium and treatments were replaced on day three and TRAP activity determined on day 5. The overall number of viable cells were determined by crystal violet staining.
Whale dentine slices will be washed in extran, rinsed with distilled water, washed in 70% ethanol and dried overnight. The dentine slices mounted on stubs, carbon-coated and visualised on a Philips XL-20 scanning electron microscope, (SEM) as previously described. Images will be analysed using ImageQuant software and the area of resorption determined for each dentine slice (quadruplicate dentine slices for each treatment). Results are expected to be average resorption area +/− standard errors of the mean (SEM) and the significant differences between treatments will be determined using Students t-tests (2-tailed, unpaired).
In a separate experiment, pre-loaded bone slices (whale dentine) or commercial forms of hydroxyapatite (osteologic slides) with either free γ-tocopherol (γToc) or γ-tocopherol-bpp(OEt) (BP-γToc) and then washed away unbound drug.

[2] = tested on: Caspase-3 activity in MB231 breast cancer cell-line; experiment: Caspase-3 enzymatic activity assay; assay type: cell-based
Description: Cells were grown in 12 well-plates in the presence of IC50 concentrations of compounds of the invention or culture medium with 0.1% v/v ethanol as control and were washed with PBS and incubated with lysis buffer for 15 mins at 4° C. Lysates were centrifuged at 15000 g. 20 μl of each lysate suspension was incubated with 100 μl of protease buffer containing 10 μM of fluorescent substrate zDEVD-AFC (3 samples/lysate) for 4 hrs at room temperature. Caspase-3 enzymatic activity was measured every 1 hr by fluorescence with excitation at 405 nm and emission at 515/30 nm.
Fluorescence measurements were plotted in graphs against time and were statistically analysed by two-way ANOVA followed by Bonferroni post-tests to identify statistically significant apoptotic activities of compounds of the invention (see FIG. 3).

[3] = tested on: metastatic breast cancer cell lines (MCF-7, MDA-MB231, MDA-MB231TXSA); experiment: Cell viability / antiproliferative activity, breast cancer lines; assay type: cell-based
Description: Immortalised osteolytic metastatic breast cancer cell lines, a) hormone-dependent MCF-7 and b) hormone refractory MDA-MB231, together with the daughter line MDA-MB231TXSA were incubated with 5 gradual concentrations of compounds of the invention as described below. Cell viability was assessed with the crystal violet colorimetric assay and IC50s were evaluated.
Medium was removed from cell cultures and cells were fixed with 4% v/v formaldehyde for 5 mins at room temperature. Formalin was then removed and CV added for 10 mins at room temperature followed by several washes with dsH2O. Samples were allowed to dry overnight. The following day, 10% acetic acid was added for 15 mins and optical density at 620 nm was measured. Optical densities versus compound concentrations were plotted in graphs and IC50s estimated by linear regression analysis using the WorkOut (VictorX4) software.
MCF-7, MDA-MB231 and MDA-MB231TXSA cells were seeded in 96-well-plates and allowed to attach overnight. The following day media were replaced with fresh media containing the following compounds: Both free tetraethyl methylbisphosphonate (bpp(OEt)) and bpp(OEt) in 1:1 combination with the free chromanol and the biphosphonate conjugates were tested at 5 gradual concentrations of: 0.02, 0.04, 0.06, 0.08 and 0.1 mM.
Cells were cultured in the presence of the compounds for 72 hrs and viability was assessed on day 3 by crystal violet assay. The cell lines were selected for their high bone metastatic potential. The fluorescently transfected line MB231TXSA, derived from line MB231 is also used in animal studies (WP7).

Balb/c Nu/Nu mice = experiment: Intratibial injection of compounds, micro-CT trabecular bone volume; assay type: in vivo; details: 10 μl into tibial marrow space, 3 weeks, μCT; compared to the maternal BP compound; preliminary data; FIG. 8
Description: Four week old female Balb/c Nu/Nu mice were housed under pathogen free conditions, in accordance with the guidelines approved by the Institute of Medical and Veterinary Science animal ethics research committee. Mice were randomly assigned into 3 groups of 4 animals. The left tibia was wiped with 70% ethanol and a 26 gauge needle coupled to a Hamilton syringe, was inserted through the tibial plateau with the knee flexed and 10 μl of each drug injected into the marrow space. Mice were humanely killed 3 weeks post drug administration and bone morphometric parameters were assessed using high resolution micro-CT and histology.
• Group 1: Bpp(OEt) (BP) (20 μM) • Group 2: γ-Tocotrienol (20 μM) • Group 3: γ-Tocotrienol-BP conjugate (20 μM) Micro-Computer Tomography Analysis
Both the right and left tibiae of each animal were mounted in the CT specimen tube and placed securely into the SkyScan-1072 X-ray micro-CT Scanner (Aartselaar, Belgium). The program was commenced with magnification set to give scan slices of 5.2 microns. Three-dimensional (3D) images were generated using Cone-Beam reconstruction and 3D visualisation (Skyscan). Using the two dimensional (2D) images obtained from the micro-CT scan, the growth plate was identified and 750 sections, starting from the growth plate/tibial interface and moving down the tibia, were selected. […]

RAW264.7 cells = experiment: In vitro osteoclastogenesis of RAW264.7 (TRAP staining); assay type: cell-based, murine; details: RANKL-differentiated; γ-tocopherol at 1 μg/ml and 201 μg/ml; bpp(OEt) at increasing concentrations; FIG. 4
Description: as §1, §2
Osteoclast cultures established by the differentiation of RAW264.7 cells in wells were fixed and stained for tartrate resistant acid phosphatase (TRAP) as recommended by the manufacturer on days 4 and 5. TRAP positive cells were visualised by light microscopy and images taken with a digital camera.

SMILES | inhibition of resorption on pre-loaded substrate ([1]; pre-loaded, washed, zoledronic acid as control, FIG. 5) | effect on differentiation and activity of osteoclasts [1] | pro-apoptotic activity (Caspase-3 activity) ([2]; IC50 concentrations, two-way ANOVA with Bonferroni post-tests) | time-point at which the increased Caspase-3 activity was present ([2]; measured every 1 hr for 4 hrs) | antiproliferative activity compared with bpp(OEt) ([3]; esterified compounds and 1:1 mixtures) | antiproliferative activity compared with γ-tocopherol ([3]; upon esterification of γ-tocopherol) | effect on cell viability ([3]; viability assays and IC50s, 72 hrs) | trabecular bone volume at the site of injection (Balb/c Nu/Nu mice) | osteoclastogenesis of Raw264.7 (RAW264.7 cells)
CCOP(=O)(OCC)C(CCC(=O)Oc1cc2c(c(C)c1C)OC(C)(CCCC(C)CCCC(C)CCCC(C)C)CC2)P(=O)(OCC)OCC (centres unmarked) [γ-toc-bpp(OEt), γ-tocopheryl bisphosphonic ester] | inhibited resorption to an extent comparable with that seen with zoledronic acid | retains the inhibitory activity on osteoclast differentiation and bone resorption | statistically significant pro-apoptotic activities | 3 h | increased | increased | reduced cell viability | significant increase in trabecular bone volume | 
Cc1c(O)cc2c(c1C)O[C@](C)(CCC[C@H](C)CCC[C@H](C)CCCC(C)C)CC2 [γ-toc, γ-tocopherol, reference compound] |  | inhibitory effect on the differentiation and activity of osteoclasts |  |  |  |  |  | significant increase in trabecular bone volume | increased osteoclastogenesis
